From patent US12110294B2, “CD73 compounds” (Gilead Sciences, Inc., priority 2020, dated 2024)
Like-named read-outs stand apart in the source and are kept apart here.

Experiments:
CD73 [1] = target: T1, CD73 (Homo sapiens, UniProt P21589); assay: CD73 Biochemical IC50 Assay; conditions: final AMP 15 uM, final CD73 0.3 nM, 25 mM Tris pH 7.4, 5 mM MgCl2, no phosphate
T1 construct: purchased R&D system
T1 sequence (P21589 27-549): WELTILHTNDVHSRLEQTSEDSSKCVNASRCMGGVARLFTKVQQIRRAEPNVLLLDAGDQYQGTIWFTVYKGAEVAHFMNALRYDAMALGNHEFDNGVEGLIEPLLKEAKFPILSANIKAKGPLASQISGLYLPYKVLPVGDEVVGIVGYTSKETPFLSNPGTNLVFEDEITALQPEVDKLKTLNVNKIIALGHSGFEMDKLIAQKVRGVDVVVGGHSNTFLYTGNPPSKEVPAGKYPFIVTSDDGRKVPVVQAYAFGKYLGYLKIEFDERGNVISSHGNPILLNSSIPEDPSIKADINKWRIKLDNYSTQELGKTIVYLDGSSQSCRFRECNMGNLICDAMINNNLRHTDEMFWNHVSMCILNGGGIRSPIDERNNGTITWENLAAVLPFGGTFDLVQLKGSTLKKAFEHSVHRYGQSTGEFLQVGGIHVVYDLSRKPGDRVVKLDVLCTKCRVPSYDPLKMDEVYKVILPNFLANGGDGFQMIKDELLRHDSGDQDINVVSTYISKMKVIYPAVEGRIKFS
Method: CD73 Biochemical IC50 Assay
Compound serial dilutions were pre-spotted into Thermo Nunc assay plate. 50 μL CD73 enzyme buffer (CD73 purchased from R&D system=0.6 nM, 25 mM Tris, pH 7.4, 5 mM MgCl2) was added into the assay plate and incubated for 15 mins. […] The samples were run using Rapid fire.

CD73 [2] = target: T1, CD73; type: biochemical; conditions: 1 mM NaH2PO4 in enzyme buffer, final AMP 15 uM, final CD73 0.3 nM
[3] = target: T2, CD73 activity in MDA-MB-231-GFP cells (Homo sapiens, UniProt P21589); assay: MDA-MB-231 Cell Based CD73 Activity Assay (DMEM); conditions: 3000 cells per well, DMEM medium with 10% human plasma, overnight compound treatment, AMP 200 uM
T2 construct: endogenous in cells; host or cells: MDA-MB-231-GFP cells
T2 sequence (P21589 27-549): T1 sequence (P21589 27-549)

Row | Structure (SMILES) | IC50 (CD73 [1]) | IC50 (CD73 [2]) | EC50 [3]
1 | O=c1[nH]cc(-c2cc([C@@H]3CC34CCC4)c3nccn3n2)c(=O)[nH]1 (racemic) [Example 5, (S)-5-(8-(spiro[2.3]hexan-1-yl)imidazo[1,2-b]pyridazin-6-yl)pyrimidine-2,4(1H,3H)-dione and (R)-5-(8-(spiro[2.3]hexan-1-yl)imidazo[1,2-b]pyridazin-6-yl)pyrimidine-2,4(1H,3H)-dione] | ≥ 2500 nM | – | –
2 | O=c1[nH]cc(-c2cc([C@@H]3C[C@H]3c3ccc(OC(F)(F)F)cc3)c3nccn3n2)c(=O)[nH]1 (racemic) [Example 48, 5-(8-((2S,2S)-2-(4-(trifluoromethoxy)phenyl)cyclopropyl)imidazo[1,2-b]pyridazin-6-yl)pyrimidine-2,4(1H,3H)-dione and 5-(8-((1R,2R)-2-(4-(trifluoromethoxy)phenyl)cyclopropyl)imidazo[1,2-b]pyridazin-6-yl)pyrimidine-2,4(1H,3H)-dione] | 52.5 nM | 2.73 nM | –
3 | O=c1[nH]cc(-c2cc([C@@H]3C[C@H]3C3CC(F)(F)C3)c3nccn3n2)c(=O)[nH]1 (racemic) [Example 106, 5-(8-((1S,2R)-2-(3,3-difluorocyclobutyl)cyclopropyl)imidazo[1,2-b]pyridazin-6-yl)pyrimidine-2,4(1H,3H)-dione and 5-(8-((1R,2S)-2-(3,3-difluorocyclobutyl)cyclopropyl)imidazo[1,2-b]pyridazin-6-yl)pyrimidine-2,4(1H,3H)-dione] | 105 nM | – | –
4 | O=c1[nH]cc(-c2cc([C@@H]3C[C@H]3C(F)(F)F)c3nccn3n2)c(=O)[nH]1 (racemic) [Example 107, 5-(8-((2S,2S)-2-(trifluoromethyl)cyclopropyl)imidazo[1,2-b]pyridazin-6-yl)pyrimidine-2,4(1H,3H)-dione and 5-(8-((1R,2R)-2-(trifluoromethyl)cyclopropyl)imidazo[1,2-b]pyridazin-6-yl)pyrimidine-2,4(1H,3H)-dione] | 46.8 nM | – | –
5 | O=c1[nH]cc(-c2cc([C@@H]3C[C@@]3(F)c3ccccc3)c3nccn3n2)c(=O)[nH]1 (racemic) [Example 108, 5-(8-((1R,2R)-2-fluoro-2-phenylcyclopropyl)imidazo[1,2-b]pyridazin-6-yl)pyrimidine-2,4(1H,3H)-dione and 5-(8-((1S,2S)-2-fluoro-2-phenylcyclopropyl)imidazo[1,2-b]pyridazin-6-yl)pyrimidine-2,4(1H,3H)-dione] | 35 nM | – | –
6 | O=C(NCC(F)(F)F)OC1CN(c2cc(-c3c[nH]c(=O)[nH]c3=O)nn3ncnc23)CC1(F)F (racemic) [Example 436, 1-(6-(2,4-dioxo-1,2,3,4-tetrahydropyrimidin-5-yl)-[1,2,4]triazolo[1,5-b]pyridazin-8-yl)-4,4-difluoropyrrolidin-3-yl (2,2,2-trifluoroethyl)carbamate] | – | 0.13 nM | 0.43 nM
7 | O=c1[nH]cc(-c2cc([C@H]3C[C@@H]3c3cnc4cnn(CC(F)(F)F)c4c3)c3nccn3n2)c(=O)[nH]1 (racemic) [Example 614, 5-(8-((1S,2S)-2-(1-(2,2,2-trifluoroethyl)-1H-pyrazolo[4,3-b]pyridin-6-yl)cyclopropyl)imidazo[1,2-b]pyridazin-6-yl)pyrimidine-2,4(1H,3H)-dione] | – | 2.06 nM | 0.13 nM
8 | O=c1[nH]cc(-c2cc(N3C[C@H](O)C(F)(F)C3)c3nccn3n2)c(=O)[nH]1 (single isomer, unassigned) [Example 527] | – | 5.66 nM | 16.3 nM
9 | O=c1[nH]cc(-c2cc(N3C[C@@H](O)C(F)(F)C3)c3nccn3n2)c(=O)[nH]1 (single isomer, unassigned) [Example 528] | – | 6.25 nM | 12.9 nM
10 | O=c1[nH]cc(-c2cc(N3C[C@@H]4C[C@H]3C(F)(F)C4)c3nccn3n2)c(=O)[nH]1 [Example 644, 5-(8-(6,6-difluoro-2-azabicyclo[2.2.1]heptan-2-yl)imidazo[1,2-b]pyridazin-6-yl)pyrimidine-2,4(1H,3H)-dione] | – | > 250 nM | 1420 nM

More lines, now with the values ahead:

Row | IC50 (CD73 [1]) | IC50 (CD73 [2]) | EC50 [3] | Structure (SMILES)
11 | 14.7 nM | 1.5 nM | – | N#Cc1cc([C@@H]2C[C@H]2c2cc(-c3c[nH]c(=O)[nH]c3=O)nn3ccnc23)ccc1F (racemic) [Example 64, 5-((2S,2S)-2-(6-(2,4-dioxo-1,2,3,4-tetrahydropyrimidin-5-yl)imidazo[1,2-b]pyridazin-8-yl)cyclopropyl)-2-fluorobenzonitrile and 54(1R,2R)-2-(6-(2,4-dioxo-1,2,3,4-tetrahydropyrimidin-5-yl)imidazo[1,2-b]pyridazin-8-yl)cyclopropyl)-2-fluorobenzonitrile]
12 | 98.4 nM | – | – | O=c1[nH]cc(-c2cc([C@@H]3C[C@H]3c3ccc(C(F)(F)F)c(F)c3)c3nccn3n2)c(=O)[nH]1 (racemic) [Example 100, 5-(8-((2S,2S)-2-(3-fluoro-4-(trifluoromethyl)phenyl)cyclopropyl)imidazo[1,2-b]pyridazin-6-yl)pyrimidine-2,4(1H,3H)-dione and 5-(8-((1R,2R)-2-(3-fluoro-4-(trifluoromethyl)phenyl)cyclopropyl)imidazo[1,2-b]pyridazin-6-yl)pyrimidine-2,4(1H,3H)-dione]
13 | 15.9 nM | – | – | COc1ccccc1[C@@H]1C[C@H]1c1cc(-c2c[nH]c(=O)[nH]c2=O)nn2ccnc12 (racemic) [Example 101, 5-(8-((2S,2S)-2-(2-methoxyphenyl)cyclopropyl)imidazo[1,2-b]pyridazin-6-yl)pyrimidine-2,4(1H,3H)-dione and 5-(8-((1R,2R)-2-(2-methoxyphenyl)cyclopropyl)imidazo[1,2-b]pyridazin-6-yl)pyrimidine-2,4(1H,3H)-dione]
14 | – | 1.05 nM | 2.04 nM | O=c1[nH]cc(-c2cc([C@H]3C[C@@H]3c3ccc(OCC(F)F)cn3)c3nccn3n2)c(=O)[nH]1 (racemic) [Example 590, 5-(8-((2S,2S)-2-(5-(2,2-difluoroethoxy)pyridin-2-yl)cyclopropyl)imidazo[1,2-b]pyridazin-6-yl)pyrimidine-2,4(1H,3H)-dione]
15 | – | 1.15 nM | 1.59 nM | O=c1[nH]cc(-c2cc([C@H]3C[C@@H]3c3ccc4c(c3)ncn4CC(F)(F)F)c3nccn3n2)c(=O)[nH]1 [Example 324, 5-(8-((1S,2S)-2-(1-(2,2,2-trifluoroethyl)-1H-benzo[d]imidazol-5-yl)cyclopropyl)imidazo[1,2-b]pyridazin-6-yl)pyrimidine-2,4(1H,3H)-dione]
16 | – | 0.71 nM | 33.5 nM | O=c1[nH]cc(-c2cc([C@H]3C[C@@H]3c3ccc(F)cc3F)n3ncnc3n2)c(=O)[nH]1 [Example 416, 5-(7-((2S,2S)-2-(2,4-difluorophenyl)cyclopropyl)-[1,2,4]triazolo[1,5-a]pyrimidin-5-yl)pyrimidine-2,4(1H,3H)-dione]
17 | – | 0.87 nM | 12.6 nM | O=c1[nH]cc(-c2cc([C@H]3C[C@@H]3c3ccc(C(F)(F)F)cc3)n3ncnc3n2)c(=O)[nH]1 [Example 417, 5-(7-((2S,2S)-2-(4-(trifluoromethyl)phenyl)cyclopropyl)-[1,2,4]triazolo[1,5-a]pyrimidin-5-yl)pyrimidine-2,4(1H,3H)-dione]
18 | – | 0.58 nM | 0.71 nM | O=c1[nH]cc(-c2cc([C@H]3C[C@@H]3c3cc4c(cnn4CC(F)(F)F)cc3F)c3ncc(F)n3n2)c(=O)[nH]1 [Example 613, 5-(3-fluoro-8-((1S,2S)-2-(5-fluoro-1-(2,2,2-trifluoroethyl)-1H-indazol-6-yl)cyclopropyl)imidazo[1,2-b]pyridazin-6-yl)pyrimidine-2,4(1H,3H)-dione]
